Results on six molecules are retold here after patent publication US20240376094A2, “SELECTIVE BCL-XL PROTAC COMPOUNDS AND METHODS OF USE” (Les Laboratoires Servier, priority 2021, published 2024).

Type in all cases: cell-based
Assay [1] has as its target T1, Bcl-xL (Homo sapiens, UniProt Q07817).
T1 construct: Measured levels of Bcl-xL protein of HCT116 cells treated with the tested compounds; host or cells: HCT116
Put plainly: HCT116 Bcl-xL degradation, capillary-based immunoassay (WES). The settings on record: for DC50: HCT116, 24 h, 9-point serial dilution; for remaining activity at 0.01 µM / remaining activity at 0.1 µM: HCT-116, 24 h, % of untreated cells; for remaining activity at 0.01 µM: HCT116, 10 nM; for remaining activity at 0.1 µM: HCT116, 100 nM. A digest of the protocol:
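HCT116 cells treated 24 h with compound at 10/100 nM and/or 9-point dilution (quadruplicates), then lysed. Bcl-xL measured by capillary WES immunoassay, normalized to cofilin and expressed as % of untreated cells. DC50 from four-parameter curve fit.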

Assay [2] has as its system MOLT-4 cells. The experiment in a line: MOLT-4 cell viability, MTT assay. To be noted: Homo sapiens, MOLT-4, 48 h. A digest of the protocol: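 MOLT-4 cells in RPMI 1640 with 10% FBS were exposed to compounds for 48 h at 9 concentrations (3.16-fold dilutions, triplicates). After 4 h with MTT and overnight SDS/HCl solubilisation, absorbance was read at 540 nm. IC50 came from four-parameter fits versus control, as the mean of ≥2 independent experiments.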

In assay [3] the test system is NCI-H1650. The experiment in a line: CellTiter-Glo 3D proliferation assay, NCI-H1650 spheroids. To be noted: 5 days. A digest of the protocol:
(§1)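 Both lines grown in RPMI-1640 + 10% FBS. COR-L105 plated flat at 1,000 cells/well overnight; NCI-H1650 grown as spheroids, 3,000 cells/well, 72 h. Compounds at 0.508 nM-10 μM final for 5 days, 37° C. ATP read by CellTiter-Glo (3D version for spheroids); IC50 from variable-slope fit normalized to untreated cells.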

For assay [4], the system named is COR-L105. Put plainly: CellTiter-Glo proliferation assay, COR-L105. To be noted: COR-L105, 5 days. A digest of the protocol: as §1

Structures are written as SMILES.

T1 sequence (Q07817 whole entry): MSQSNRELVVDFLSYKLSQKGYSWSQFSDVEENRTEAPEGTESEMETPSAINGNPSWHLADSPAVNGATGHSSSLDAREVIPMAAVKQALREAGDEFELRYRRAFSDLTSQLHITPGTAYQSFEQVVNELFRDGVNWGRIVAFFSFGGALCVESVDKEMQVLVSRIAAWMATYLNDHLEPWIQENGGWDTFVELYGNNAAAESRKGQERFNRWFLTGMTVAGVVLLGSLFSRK

In assay [1], `Cc1ncsc1-c1ccc([C@H](C)NC(=O)C2CC(O)CN2C(=O)C(NC(=O)CCCCCCCCCCCN2CCN(CC#Cc3ccc(OCCCc4sc(N5CCCc6c5nnc(Nc5nc7ccccc7s5)c6C)nc4C(=O)O)c(F)c3)CC2)C(C)(C)C)cc1` (stereo in doubt) [Example 31, 2-[3-(1,3-benzothiazol-2-ylamino)-4-methyl-6,7-dihydro-5H-pyrido[2,3-c]pyridazin-8-yl]-5-[3-[2-fluoro-4-[3-[4-[12-[[(1S)-1-[(2S,4R)-4-hydroxy-2-[[(1S)-1-[4-(4-methylthiazol-5-yl)phenyl]ethyl]carbamoyl]pyrrolidine-1-carbonyl]-2,2-dimethyl-propyl]amino]-12-oxo-dodecyl]piperazin-1-yl]prop-1-ynyl]phenoxy]propyl] thiazole-4-carboxylic acid] gave a DC50 of 1.22 nM, a remaining activity at 0.01 µM of 11% and a remaining activity at 0.1 µM of 6%. Half-maximal inhibition in assay [2] (IC50) was put at 8.04 nM.

Regarding `Cc1ncsc1-c1ccc(CNC(=O)C2C[C@@H](O)CN2C(=O)C(NC(=O)CCCCCC(=O)N2CCN(CC#Cc3ccc(OCCCc4sc(N5CCCc6c5nnc(Nc5nc7ccccc7s5)c6C)nc4C(=O)O)c(F)c3)CC2)C(C)(C)C)cc1` (stereo in doubt) [Example 15, 2-[3-(1,3-benzothiazol-2-ylamino)-4-methyl-6,7-dihydro-5H-pyrido[2,3-c]pyridazin-8-yl]-5-[3-[2-fluoro-4-[3-[4-[7-[[(1S)-1-[(2S,4R)-4-hydroxy-2-[[4-(4-methylthiazol-5-yl)phenyl]methylcarbamoyl]pyrrolidine-1-carbonyl]-2,2-dimethyl-propyl]amino]-7-oxo-heptanoyl]piperazin-1-yl]prop-1-ynyl]phenoxy]propyl] thiazole-4-carboxylic acid], in assay [1], the DC50 turned out to be 0.462 nM, the remaining activity at 0.01 µM stood at 39% and the remaining activity at 0.1 µM is 23%. In addition, in assay [2], the IC50 was found to be 5.67 nM.

Turning to `Cc1ncsc1-c1ccc(CNC(=O)[C@@H]2CC(O)CN2C(=O)C(NC(=O)CCCCCCC(=O)N2CCN(CCOC34CC5(C)CC(C)(CC(Cn6ncc(-c7ccc(N8CCCc9c8nnc(Nc8nc%10ccccc%10s8)c9C)nc7C(=O)O)c6C)(C5)C3)C4)CC2)C(C)(C)C)cc1` (stereo in doubt) [Example 24, 6-[3-(1,3-benzothiazol-2-ylamino)-4-methyl-6,7-dihydro-5H-pyrido[2,3-c]pyridazin-8-yl]-3-[1-[[3-[2-[4-[8-[[(1S)-1-[(2S,4R)-4-hydroxy-2-[[4-(4-methylthiazol-5-yl)phenyl]methylcarbamoyl]pyrrolidine-1-carbonyl]-2,2-dimethyl-propyl]amino]-8-oxo-octanoyl]piperazin-1-yl]ethoxy]-5,7-dimethyl-1-adamantyl]methyl]-5-methyl-pyrazol-4-yl]pyridine-2-carboxylic acid], the IC50 in assay [3] was 92.9 nM; in assay [3] (Homo sapiens, NCI-H1650, 120 h), 95 nM; in assay [4], 348 nM; in assay [4] (Homo sapiens, COR-L105, 120 h), 500 nM; in assay [2], 2.64 nM. In addition, the Emax in assay [3] (Homo sapiens, NCI-H1650, 120 h, read-out: NCI-H1650 Span (Amax)) is 89.1%; in assay [4] (Homo sapiens, COR-L105, 120 h, read-out: COR-L105 Span (max)) it was 104%. For the same molecule, in assay [1], the DC50 was more than 316 nM. The same molecule had a remaining activity at 0.01 µM in assay [1] of 75%. Also, in assay [1], the remaining activity at 0.1 µM came to 44%.

In the case of `Cc1ncsc1-c1ccc([C@H](C)NC(=O)[C@@H]2C[C@@H](O)CN2C(=O)[C@@H](NC(=O)CCCCCCCCN(C)CCOC23CC4(C)CC(C)(CC(Cn5ncc(-c6ccc(N7CCCc8c7nnc(Nc7nc9ccccc9s7)c8C)nc6C(=O)O)c5C)(C4)C2)C3)C(C)(C)C)cc1` [Example 5, 6-[3-(1,3-benzothiazol-2-ylamino)-4-methyl-6,7-dihydro-5H-pyrido[2,3-c]pyridazin-8-yl]-3-[1-[[3-[2-[[9-[[(1S)-1-[(2S,4R)-4-hydroxy-2-[[(1S)-1-[4-(4-methylthiazol-5-yl)phenyl]ethyl]carbamoyl]pyrrolidine-1-carbonyl]-2,2-dimethyl-propyl]amino]-9-oxo-nonyl]-methyl-amino]ethoxy]-5,7-dimethyl-1-adamantyl]methyl]-5-methyl-pyrazol-4-yl]pyridine-2-carboxylic acid], in assay [1], the DC50 is 2.45 nM, the remaining activity at 0.01 µM was 54% and the remaining activity at 0.1 µM came to 19%. In addition, the IC50 in assay [2] was 3.58 nM.

On to `Cc1ncsc1-c1ccc([C@H](C)NC(=O)[C@@H]2C[C@@H](O)CN2C(=O)[C@@H](NC(=O)CCCCCCCN(C)CCOC23CC4(C)CC(C)(CC(Cn5ncc(-c6ccc(N7CCCc8c7nnc(Nc7nc9ccccc9s7)c8C)nc6C(=O)O)c5C)(C4)C2)C3)C(C)(C)C)cc1` [Example 6, 6-[3-(1,3-benzothiazol-2-ylamino)-4-methyl-6,7-dihydro-5H-pyrido[2,3-c]pyridazin-8-yl]-3-[1-[[3-[2-[[8-[[(1S)-1-[(2S,4R)-4-hydroxy-2-[[(1S)-1-[4-(4-methylthiazol-5-yl)phenyl]ethyl]carbamoyl]pyrrolidine-1-carbonyl]-2,2-dimethyl-propyl]amino]-8-oxo-octyl]-methyl-amino]ethoxy]-5,7-dimethyl-1-adamantyl]methyl]-5-methyl-pyrazol-4-yl]pyridine-2-carboxylic acid], for which, in assay [1], the DC50 was found to be 2.94 nM, the remaining activity at 0.01 µM is 69% and the remaining activity at 0.1 µM was determined as 22%. Further, half-maximal inhibition in assay [2] (IC50) required 6.57 nM.

In assay [1], `Cc1ncsc1-c1ccc([C@H](C)NC(=O)[C@@H]2C[C@@H](O)CN2C(=O)[C@@H](NC(=O)CCCCCCCCCCCCCCCN(C)CCOC23CC4(C)CC(C)(CC(Cn5ncc(-c6ccc(N7CCCc8c7nnc(Nc7nc9ccccc9s7)c8C)nc6C(=O)O)c5C)(C4)C2)C3)C(C)(C)C)cc1` [Example 1, 6-[3-(1,3-benzothiazol-2-ylamino)-4-methyl-6,7-dihydro-5H-pyrido[2,3-c]pyridazin-8-yl]-3-[1-[[3-[2-[[16-[[(1S)-1-[(2S,4R)-4-hydroxy-2-[[(1S)-1-[4-(4-methylthiazol-5-yl)phenyl]ethyl]carbamoyl]pyrrolidine-1-carbonyl]-2,2-dimethyl-propyl]amino]-16-oxo-hexadecyl]-methyl-amino]ethoxy]-5,7-dimethyl-1-adamantyl]methyl]-5-methyl-pyrazol-4-yl]pyridine-2-carboxylic acid] came in with a DC50 of 0.329 nM, a remaining activity at 0.01 µM of 21% and a remaining activity at 0.1 µM of 9%. In addition, half-maximal inhibition in assay [2] (IC50) was put at 0.636 nM.
